Compound in assay [1]: CCn1c(C(=O)N(C2CC2)C2CC2)cc2c3c(ncn3C)c(Nc3cc(C)n(C)n3)nc21
The assay is described as follows: surviving fraction relative to DMSO-only wells; higher = less growth inhibition. The conditions noted are these: exposure time: 5 days. In a few lines: (§1)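 Log-phase tumour cell lines, 250–500 cells per well in 384-well plates, received inhibitors at 0.5, 1, 5, 10, 50, 100, 500 and 1000 nM continuously for five days, starting 24 hours after seeding. Viability was quantified with CellTiter-Glo luminescence and normalised to the median of DMSO-only wells to give surviving fraction. Three screens were run per line, and a line stayed in only with replicate Pearson r >0.7 and median Z' >0.3.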

Compound in assay [2]: COc1cc2ncnc(Nc3ccc(F)c(Cl)c3)c2cc1NC(=O)/C=C/CN1CCCCC1
The description is as above. The conditions noted are these: exposure time: 5 days. In outline: as §1

The record followed here is the supplement of paper PMC6045584.

± gives the standard deviation of the averaged measurements.

On to HS578T BREAST, for which the surviving fraction in assay [1] (0.5 nM) amounted to 1.13 ± 0.053; in assay [1] (1 nM), 0.828 ± 0.05; in assay [1] (5 nM), 1 ± 0.12; in assay [1] (10 nM), 1.01 ± 0.15; in assay [1] (50 nM), 0.821 ± 0.06; in assay [1] (100 nM), 1.09 ± 0.15. For the same test system, the surviving fraction in assay [1] (500 nM) came out at 0.999 ± 0.049; in assay [1] (1000 nM), 0.989 ± 0.073; in assay [2] (0.5 nM), 1.07 ± 0.1; in assay [2] (1 nM), 1.15 ± 0.14; in assay [2] (5 nM), 1.03 ± 0.12; in assay [2] (10 nM), 0.956 ± 0.17. The surviving fraction in assay [2] (50 nM) was found to be 0.985 ± 0.2; in assay [2] (100 nM), 1.09 ± 0.1; in assay [2] (500 nM), 0.688 ± 0.19; in assay [2] (1000 nM), 0.412 ± 0.091.
HS57T BREAST: the surviving fraction in assay [1] (0.5 nM) amounted to 0.959 ± 0.063; in assay [1] (1 nM) it was 0.892 ± 0.0062; in assay [1] (5 nM) it was 1 ± 0.045; in assay [1] (10 nM), 0.967 ± 0.037; in assay [1] (50 nM), 1.08 ± 0.055; in assay [1] (100 nM), 1.01 ± 0.017. Also, the surviving fraction in assay [1] (500 nM) amounted to 0.934 ± 0.049; in assay [1] (1000 nM), 0.917 ± 0.055; in assay [2] (0.5 nM), 0.945 ± 0.064; in assay [2] (1 nM), 1.02 ± 0.076; in assay [2] (5 nM), 1.07 ± 0.024; in assay [2] (10 nM), 1.04 ± 0.038. For the same test system, the surviving fraction in assay [2] (50 nM) was found to be 1.04 ± 0.032; in assay [2] (100 nM), 1.04 ± 0.05; in assay [2] (500 nM), 0.86 ± 0.064; in assay [2] (1000 nM) it was 0.318 ± 0.026.
For HMT3552 BREAST, the surviving fraction stood at 0.943 in assay [1] (0.5 nM); 0.942 in assay [1] (1 nM); 1.08 in assay [1] (5 nM); 1.03 in assay [1] (10 nM); 1.23 in assay [1] (50 nM); 1.18 in assay [1] (100 nM). For the same test system, the surviving fraction in assay [1] (500 nM) was 1.18; in assay [1] (1000 nM), 1.27; in assay [2] (0.5 nM), 0.902; in assay [2] (1 nM), 0.831; in assay [2] (5 nM), 0.845; in assay [2] (10 nM), 0.802. Besides, the surviving fraction was 0.827 in assay [2] (50 nM), 0.792 in assay [2] (100 nM), 0.65 in assay [2] (500 nM) and 0.302 in assay [2] (1000 nM).
HCC70 BREAST: the surviving fraction was 0.976 ± 0.033 in assay [1] (0.5 nM); 0.984 ± 0.15 in assay [1] (1 nM); 1.03 ± 0.093 in assay [1] (5 nM); 0.97 ± 0.041 in assay [1] (10 nM); 1.055 ± 0.0098 in assay [1] (50 nM); 1.06 ± 0.055 in assay [1] (100 nM). For the same test system, the surviving fraction in assay [1] (500 nM) worked out at 0.939 ± 0.026; in assay [1] (1000 nM) it was 0.946 ± 0.068; in assay [2] (0.5 nM), 1.11 ± 0.059; in assay [2] (1 nM) it was 1.06 ± 0.11; in assay [2] (5 nM), 0.926 ± 0.074; in assay [2] (10 nM) it was 0.957 ± 0.11. In addition, the surviving fraction was 0.956 ± 0.11 in assay [2] (50 nM), 0.975 ± 0.049 in assay [2] (100 nM), 0.897 ± 0.091 in assay [2] (500 nM) and 0.842 ± 0.031 in assay [2] (1000 nM).
Regarding HCC38 BREAST, the surviving fraction stood at 1.26 ± 0.17 in assay [1] (0.5 nM); 1.2 ± 0.084 in assay [1] (1 nM); 1.28 ± 0.02 in assay [1] (5 nM); 1.14 ± 0.063 in assay [1] (10 nM); 1.19 ± 0.11 in assay [1] (50 nM); 1.23 ± 0.099 in assay [1] (100 nM). The surviving fraction worked out at 1.22 ± 0.18 in assay [1] (500 nM); 1.24 ± 0.17 in assay [1] (1000 nM); 1.02 ± 0.082 in assay [2] (0.5 nM); 1.21 ± 0.21 in assay [2] (1 nM); 1.16 ± 0.044 in assay [2] (5 nM); 1.22 ± 0.26 in assay [2] (10 nM). Moreover, the surviving fraction in assay [2] (50 nM) worked out at 0.954 ± 0.26; in assay [2] (100 nM), 1.07 ± 0.046; in assay [2] (500 nM), 0.863 ± 0.099; in assay [2] (1000 nM), 0.716 ± 0.06.
For G292 BONE, the surviving fraction in assay [1] (0.5 nM) was 0.983 ± 0.044; in assay [1] (1 nM), 0.978 ± 0.019; in assay [1] (5 nM) it was 1.01 ± 0.056; in assay [1] (10 nM), 1.01 ± 0.038; in assay [1] (50 nM), 1.03 ± 0.04; in assay [1] (100 nM), 1.028 ± 0.0063. Also, the surviving fraction came out at 0.952 ± 0.021 in assay [1] (500 nM); 0.97 ± 0.036 in assay [1] (1000 nM); 1.03 ± 0.021 in assay [2] (0.5 nM); 0.979 ± 0.054 in assay [2] (1 nM); 1.05 ± 0.031 in assay [2] (5 nM); 1.02 ± 0.03 in assay [2] (10 nM). The surviving fraction in assay [2] (50 nM) turned out to be 0.981 ± 0.052; in assay [2] (100 nM), 0.9292 ± 0.0084; in assay [2] (500 nM) it was 0.693 ± 0.029; in assay [2] (1000 nM), 0.424 ± 0.013.
For HMLE3 BREAST, the surviving fraction in assay [1] (0.5 nM) is 0.951 ± 0.038; in assay [1] (1 nM) it was 0.942 ± 0.037; in assay [1] (5 nM), 0.977 ± 0.09; in assay [1] (10 nM), 0.949 ± 0.072; in assay [1] (50 nM), 0.953 ± 0.088; in assay [1] (100 nM), 0.956 ± 0.061. The surviving fraction was 0.914 ± 0.036 in assay [1] (500 nM); 0.906 ± 0.056 in assay [1] (1000 nM); 0.953 ± 0.036 in assay [2] (0.5 nM); 0.934 ± 0.063 in assay [2] (1 nM); 0.917 ± 0.084 in assay [2] (5 nM); 0.953 ± 0.065 in assay [2] (10 nM). The surviving fraction turned out to be 0.921 ± 0.069 in assay [2] (50 nM), 0.932 ± 0.052 in assay [2] (100 nM), 0.793 ± 0.076 in assay [2] (500 nM) and 0.679 ± 0.035 in assay [2] (1000 nM).
